Entries after “also recorded” stand apart in the source; their conditions may differ.

One assay has as its system ANGPTL4 gene expression. The assay is described as follows: ANGPTL4 gene expression (qPCR) in WPMY-1 myofibroblasts. It counts as cell-based, human. To be noted: WPMY-1, 1 μM, 24 hours, compared to DMSO-treated cells. The procedure: FIG. 5: Influence of the substances of this invention comparative compound (CC) 2, compound 1, compound 5, compound 2 and compound 3 on ANGPTL4 gene expression. • (A) Comparison of relative ANGPTL4 expression, (B) mean inhibitory concentration of substances of this invention. (A) Human myofibroblasts (WPMY-1) are treated for 24 hours with the substances of this invention (1 μM), then RNA is isolated, the cDNA synthesized and analyzed by qPCR, normalized to L27 gene expression. (B) Titration of the effect of substances of this invention on the endogenous ANGPTL4 expression in WPMY-1 cells (left) or peritoneal mouse macrophages (right) after cells have been treated for six hours with the substances of this invention compound 1 and compound 2, respectively; RNA isolation, cDNA synthesis and qPCR as described for (A). The relative expression is calculated in relation to DMSO-treated cells. All values are average values of triplicates (+1-standard deviation). Asterisks (***, **, *) indicate significant differences to DMSO-treated cells (***: p<0.001 after t-test; *: p <0.05).
The influence of substances of this invention on PPAR-beta/delta regulated genes like for example ANGPTL4 which codes for the angiopoietin-like protein ANGPTL4 is assessed in different cells with a confluence of 70% to 80% in a 6-well cell culture plate. For this purpose, cultivated human myofibroblasts (WPMY-1), peritoneal mouse macrophages or cells of the human breast cancer cell line MDA-MB-231 are treated for 24 hours with 1 μM of the substances of this invention. Cells of the breast cancer cell line are in addition stimulated for 6 hours with TGF-beta2 (2 ng/ml) which is commercially available. Subsequently, RNA is isolated from the cells by procedures known to the expert and analyzed by quantitative PCR (qPCR, real time qPCR, RT-qPCR) also known to those skilled in the art. […]

Assay [1] has as its target T1, GST-PPAR beta/delta LBD (Homo sapiens, UniProt Q03181).
T1 construct: GST-PPAR beta/delta LBD (GST=glutathione S-transferase); purchased Invitrogen, Darmstadt, Germany
T1 sequence (Q03181 211-439 limits assumed): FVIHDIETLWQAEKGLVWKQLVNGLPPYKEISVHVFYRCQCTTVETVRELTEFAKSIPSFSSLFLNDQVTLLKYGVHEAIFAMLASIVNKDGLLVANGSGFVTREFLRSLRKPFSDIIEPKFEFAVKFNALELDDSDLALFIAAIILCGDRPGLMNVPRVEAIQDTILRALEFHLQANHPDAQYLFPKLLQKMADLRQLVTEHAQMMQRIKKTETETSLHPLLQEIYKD
In words: Competitive in vitro ligand binding, TR-FRET, displacement of Fluormone Pan-PPAR-Green. To be noted: fluorescence ratio 520 nm/495 nm. On the procedure:
FIG. 1: Competitive in vitro ligand binding to PPAR beta/delta. • The displacement of ligand Fluormone® Pan-PPAR Green from recombinant GST-PPAR beta/delta ligand binding domain (LBD) by the substances of the present invention comparative compound (CC) 2, compound 1 (A), compound 2 (B), and compound 3 (C), compound 4 (D), compound 5 (E) is determined by TR-FRET analysis. Shown is the ratio of fluorescence intensity at 520 nm (fluorescein emission, excited by terbium emission) and 495 nm (terbium emission). All data points represent average values of triplicates (+/−standard deviation).
A) Competitive ligand-binding of the substances of this invention was measured in vitro using time-resolved fluorescence resonance energy transfer (TR-FRET) by competition with the commercially available fluorescent Fluormone® Pan-PPAR-Green for binding to the fusion protein GST-PPAR beta/delta LBD (GST=glutathione S-transferase; LBD=ligand binding domain) (Invitrogen, Darmstadt, Germany) in a VICTOR3V Multilabel Counter (WALLAC 1420; PerkinElmer Life and Analytical Sciences, Rodgau, Germany). The measurement was performed in 100 mM KC, 20 mM Tris pH 7.9, 0.01% Triton X100 and 1 μg/μL bovine serum albumin. GST is known to the expert in the field as suitable fusion partner for proteins. For this purpose, the ratio of fluorescence intensities at 520 nm (fluorescein emission excited by terbium emission) and at 495 nm (terbium emission) is determined.

Assay [2] concerns the target T1, GST-PPAR beta/delta LBD. In words: Ligand-induced binding of corepressor peptide SMRT-ID2, TR-FRET. The assay is classed as biochemical. Particulars: concentration dependent. On the procedure:
FIG. 2: Induction of corepressor peptide binding to GST-PPAR beta/delta ligand binding domain (LBD) in vitro in dependency of the concentration of the substances of this invention comparative compound (CC) 2, compound 1 (A), compound 2 (B), compound 3 (C), compound 4 (D) and compound 5 (E). The interaction of fluorescein-labeled SMRT-ID2 peptide with recombinant GST-PPAR beta/delta LBD bound to a terbium-labeled anti-GST antibody is determined by TR-FRET analysis. Shown is the ratio of fluorescence intensity at 520 nm (fluorescein emission, excited by terbium emission) and 495 nm (terbium emission). All data points represent average values of triplicates (+/−standard deviation).
B) The ligand-induced binding of the commercially available fluorescein-labeled corepressor peptide SMRT-ID2 ([…]) (Invitrogen, Darmstadt, Germany) to GST-PPAR beta/delta is for example measured by TR-FRET analysis using a terbium-labeled anti-GST antibody in a VICTOR3V Multilabel Counter (WALLAC 1420; PerkinElmer Life and Analytical Sciences, Rodgau, Germany). The measurement is performed in a buffer composed of 100 mM KC, 20 mM Tris pH 7.9, 0.01% Triton X100 and 1 μg/μL bovine serum albumin.

For a further assay, the target named is T2, PPAR beta/delta (Homo sapiens, UniProt Q03181).
T2 construct: expressed in transfected cells; host or cells: WPMY-1 human myofibroblasts, transient transfection with PEI
T2 sequence (Q03181 1-441): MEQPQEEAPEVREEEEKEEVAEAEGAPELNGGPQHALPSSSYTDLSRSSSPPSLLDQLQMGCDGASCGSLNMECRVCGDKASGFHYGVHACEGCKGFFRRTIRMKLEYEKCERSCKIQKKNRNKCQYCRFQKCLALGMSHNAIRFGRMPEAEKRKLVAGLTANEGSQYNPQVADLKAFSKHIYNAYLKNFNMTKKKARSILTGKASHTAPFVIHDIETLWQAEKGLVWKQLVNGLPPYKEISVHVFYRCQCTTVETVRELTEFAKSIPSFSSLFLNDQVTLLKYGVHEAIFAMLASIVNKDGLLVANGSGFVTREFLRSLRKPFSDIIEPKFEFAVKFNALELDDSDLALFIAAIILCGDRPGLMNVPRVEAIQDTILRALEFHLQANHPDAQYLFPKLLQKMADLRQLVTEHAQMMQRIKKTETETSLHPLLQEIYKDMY
The assay is described as follows: Agonist-induced transcriptional activity, luciferase reporter in WPMY-1 cells. The assay is classed as cell-based. To be noted: human WPMY-1 myofibroblasts, 500 nM substance, 500 nM agonist L165041. On the procedure: FIG. 4: Effect of the substances of this invention comparative compound (CC) 2, compound 1, compound 5, compound 2 and compound 3 on the agonist-induced transcriptional activity of PPAR subtypes alpha (A), beta/delta (B) and gamma (C). • WPMY-1 cells are transiently transfected with a luciferase reporter plasmid. Four hours after transfection, cells are treated for 48 hours with the respective antagonist (500 nM), followed by a treatment with 300 nM of PPAR alpha agonist GW7647 (A), 500 nM of PPAR beta/delta agonist L165041 (B) or 300 nM of PPAR gamma agonist GW1929 (C). The relative induction is represented by the luciferase activity of the agonist-treated transfected cells in relation to solvent-treated transfected cells. Asterisks (**, *) indicate significant differences to untreated cells (after t-test; **: p<0.01; *: p<0.05). GW7647 is commercially available from Sigma-Aldrich (Steinheim, Germany). L165041 and GW1929 can be obtained from Biozol (Eching, Germany).
D) The influence of substances of this invention on the agonist-induced transcriptional activity of PPAR subtypes alpha, beta/delta or gamma is determined in WPMY-1 myofibroblasts transfected transiently with a luciferase reporter plasmid (LexA system) using polyethyleneimine (PEI) according to a method known to the expert. As agonists, substances GW7647 for PPAR alpha or L165041 for PPAR beta/delta or GW1929 for PPAR gamma known to the expert are used. WPMY-1 myofibroblast cells are initially cultured for example in a 12-well plate in DMEM medium (DMEM: Dulbecco's Modified Eagle Medium) according to a method known to the expert and to a confluence of 70% to 80%, and subsequently transfected with 2.5 μg of plasmid-DNA containing the luciferase reporter plasmid, expression plasmids for the respective PPAR subtypes and the Renilla-luciferase plasmid pRL-SV40 (Promega, Mannheim, Germany), and 2.5 μl PEI (1:1000 dilution, pH 7). Four hours after transfection, the cells are treated for 48 hours with 500 nM of the substances of this invention, and 24 later with 300 nM (GW7647 or GW1929, respectively) or 500 nM (L165041) of the respective agonist at 37° C. and 5% CO2 in an incubator. The luciferase assay is performed 48 hours after the first treatment according to the commercial method of the “dual-well-system” (pjk GmbH, Kleinblittersdorf, Germany), whereby for a normalization, not only the luciferase-, but also the Renilla activity is measured. Cells are initially lysed for this measurement, and 20 μl of the lysate is transferred into a white 96-well plate (Fisher Scientific, Hamburg, Germany). […] Mean values and standard deviation are calculated from values of three independent measurements.

Regarding `COC(=O)c1sccc1S(=O)(=O)Nc1ccc(N2CCOCC2)cc1OC` [comparison compound 2, methyl 3-(N-(2-methoxy-4-morpholinophenyl)sulfamoyl)thiophene-2-carboxylate, reference compound], the “reduction of relative expression of the ANGPTL4 gene” value in the assay with ANGPTL4 gene expression is listed as “up to 10%”.

`COC(=O)c1sccc1S(=O)(=O)Nc1ccc(NCCC(C)C)cc1OC` [compound 3, methyl 3-(N-(4-(isopentylamino)-2-methoxyphenyl)sulfamoyl)thiophene-2-carboxylate]: at GST-PPAR beta/delta LBD [1], the “competition with Fluormone Pan-PPAR-Green for binding to GST-PPAR beta/delta LBD” value is on record as “significant competition efficacy; also recorded: significant competition efficiency”. At GST-PPAR beta/delta LBD [2], the “induction of interaction of PPAR beta/delta LBD with corepressor peptide SMRT-ID2” value is “clearly demonstrate the interaction; also recorded: induce”. Also, the “agonist-induced transcriptional activity of PPAR beta/delta (luciferase induction)” value at PPAR beta/delta is listed as “inhibited in a PPAR subtype-specific manner”.

With `COC(=O)c1sccc1S(=O)(=O)Nc1ccc(NCc2ccccc2)cc1OC` [compound 4, methyl 3-(N-(4-(benzylamino)-2-methoxyphenyl)sulfamoyl)thiophene-2-carboxylate], the “competition with Fluormone Pan-PPAR-Green for binding to GST-PPAR beta/delta LBD” value on GST-PPAR beta/delta LBD [1] is reported as “significant competition efficacy; also recorded: significant competition efficiency”. Further, the “induction of interaction of PPAR beta/delta LBD with corepressor peptide SMRT-ID2” value on GST-PPAR beta/delta LBD [2] is “clearly demonstrate the interaction; also recorded: induce”.

For the origin of these results see patent publication US20150018411A1, “COMPOUNDS AS PPAR BETA/DELTA INHIBITORS FOR TREATING PPAR BETA/DELTA-MEDIATED DISEASES” (PHILIPPS-UNIVERSITAT MARBURG, priority 2011, published 2015).
